The values below are quoted from earlier work in patent US10894805B2, “Prodrugs of the selective progesterone receptor modulator (SPRM) (11β,17β)-17-Hydroxy-11-[4-(methylsulphonyl)phenyl] -17-(pentafluoroethyl)estra-4,9-dien-3-one” (BAYER PHARMA AKTIENGESELLSCHAFT, priority 2016, dated 2021).

The series deals with Progesterone receptor. The conditions noted are these: DeManno et al., Steroids 68 (2003); cited from earlier work.

On to `COC[C@]1(OC)CC[C@H]2[C@@H]3CCC4=CC(=O)CCC4=C3[C@@H](c3ccc(/C=N/O)cc3)C[C@@]21C` [Compound J912], for which the “Progesterone binding affinity, Relative molar Binding Affinity (RBA)” value is given as “about 165 % RBA”.
